From patent US12202832B2, “Heterocyclic compounds having a calcium-sensing receptor antagonistic activity” (TAKEDA PHARMACEUTICAL COMPANY LIMITED, priority 2017, dated 2025)

These molecules were tested against T1, human CaSR (Homo sapiens, UniProt P41180) (assay: Human CaSR antagonist activity (NFAT-Luciferase reporter in CHO cells)). Settings: CHO, CaCl2 final 1.3 mM, 100% = reference antagonist at 10 μM, read-out: Inhibition rate (%) at 3.3 μM.
T1 construct: expressed in transfected cells; host or cells: CHO cells
T1 sequence (P41180 20-1078): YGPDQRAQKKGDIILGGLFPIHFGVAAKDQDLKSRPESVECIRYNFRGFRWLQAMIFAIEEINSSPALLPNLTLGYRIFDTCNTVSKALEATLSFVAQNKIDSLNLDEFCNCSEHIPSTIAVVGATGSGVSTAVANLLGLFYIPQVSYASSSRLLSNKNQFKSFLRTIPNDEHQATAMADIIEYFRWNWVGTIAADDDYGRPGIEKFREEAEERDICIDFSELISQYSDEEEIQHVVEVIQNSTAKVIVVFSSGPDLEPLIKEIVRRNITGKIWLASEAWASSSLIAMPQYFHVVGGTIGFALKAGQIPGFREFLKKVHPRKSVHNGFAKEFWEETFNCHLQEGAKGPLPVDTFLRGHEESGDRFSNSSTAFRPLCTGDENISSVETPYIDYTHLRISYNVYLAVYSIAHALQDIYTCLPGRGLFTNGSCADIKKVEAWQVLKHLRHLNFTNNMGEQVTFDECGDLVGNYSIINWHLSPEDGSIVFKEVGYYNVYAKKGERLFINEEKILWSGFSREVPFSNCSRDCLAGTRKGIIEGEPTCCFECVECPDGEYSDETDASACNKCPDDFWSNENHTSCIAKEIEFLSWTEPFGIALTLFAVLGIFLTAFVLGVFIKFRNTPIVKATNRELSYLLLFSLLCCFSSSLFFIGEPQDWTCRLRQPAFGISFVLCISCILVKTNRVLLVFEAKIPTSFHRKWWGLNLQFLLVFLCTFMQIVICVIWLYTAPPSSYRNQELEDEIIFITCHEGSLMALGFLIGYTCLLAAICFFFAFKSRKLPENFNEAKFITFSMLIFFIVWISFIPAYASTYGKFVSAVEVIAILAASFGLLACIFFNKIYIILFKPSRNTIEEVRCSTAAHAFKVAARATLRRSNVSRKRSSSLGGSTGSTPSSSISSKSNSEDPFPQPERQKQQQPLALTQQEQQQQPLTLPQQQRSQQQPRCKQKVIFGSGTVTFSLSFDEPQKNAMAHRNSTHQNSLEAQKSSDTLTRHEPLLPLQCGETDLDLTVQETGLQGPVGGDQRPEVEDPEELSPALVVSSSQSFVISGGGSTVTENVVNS
Assay type: cell-based
Description: CaSR antagonist activity measurement was performed using Bright-Glo Luciferase assay system (Promega Corporation). CHO cells in which human CaSR and NFAT-Luciferase reporter gene were forcibly expressed were suspended in MEM alpha (Wako Pure Chemical Industries, Ltd.) containing 10% dialyzed serum (HyClone). The cells in suspension was seeded in 384-well white plate (Corning) at 10,000/20 μL/well, and cultured in an incubator of 37° C., 5% CO2 for one day. A diluent of Test compound was prepared with assay buffer (MEM alpha containing 10 mM HEPES (Life Technologies) and 10% dialysis serum). The diluent was added to the plate at 5 μL/well and allowed to stand at 37° C. for 10 minutes. Further, a diluent of 7.8 mM CaCl2 prepared with assay buffer (final concentration 1.3 mM) was added at 5 μl/well and allowed to stand in an incubator of 37° C., 5% CO2 for 2 hours. Bright-Glo reagents (Promega Corporation) were added at 10 μL/well, and the obtained mixture was stirred for 5 minutes, and then luminescence intensity was measured using Multi-label reader Envision (PerkinElmer, Inc.). The activity (%) of the test compound was calculated with the definitions in which the luminescence intensity when DMSO is added in place of the test compound is defined as 0% inhibition; and the luminescence intensity when (5R)—N-(1-ethyl-1-(4-ethylphenyl)propyl)-2,7,7-trimethyl-5-phenyl-4,5,6,7-tetrahydropyrazolo[1,5-a] Pyrimidine-3-carboxamide at final concentration of 10 μM is added is defined as 100% inhibition.

Structure (SMILES)	inhibition at 3.3 µM
CCc1ccc(C(CC)(NC(=O)c2cnn3c2N[C@@H](c2ccccc2)CC3(C)C)C(=O)N[C@@H](C)C(N)=O)cc1 (stereo partly drawn) [Example 2, (5R)-N-(1-(((2S)-1-Amino-1-oxopropan-2-yl)amino)-2-(4-ethylphenyl)-1-oxobutan-2-yl)-7,7-dimethyl-5-phenyl-4,5,6,7-tetrahydropyrazolo[1,5-a]pyrimidine-3-carboxamide]	102%
CCc1ccc(C(CC)(NC(=O)c2cnn3c2N[C@@H](c2ccccc2)CC3(C)C)C(=O)N[C@@H](CC(C)C)C(N)=O)cc1 (stereo partly drawn) [Example 14, (5R)-N-(1-(((2S)-1-Amino-4-methyl-1-oxopentan-2-yl)amino)-2-(4-ethylphenyl)-1-oxobutan-2-yl)-7,7-dimethyl-5-phenyl-4,5,6,7-tetrahydropyrazolo[1,5-a]pyrimidine-3-carboxamide]	98%
CCc1ccc(C(C)(NC(=O)c2cnn3c2N[C@@H](c2ccccc2)CC3(C)C)C(=O)N[C@@H](CC(C)C)C(N)=O)cc1 (stereo partly drawn) [Example 9, (5R)-N-(1-(((2S)-1-Amino-4-methyl-1-oxopentan-2-yl)amino)-2-(4-ethylphenyl)-1-oxopropan-2-yl)-7,7-dimethyl-5-phenyl-4,5,6,7-tetrahydropyrazolo[1,5-a]pyrimidine-3-carboxamide]	98%
CCc1ccc(C(CC)(NC(=O)c2cnn3c2N[C@@H](c2ccccc2)CC3(C)C)C(=O)N[C@@H](CO)C(N)=O)cc1 (stereo partly drawn) [Example 23, (5R)-N-(1-(((2S)-1-Amino-3-hydroxy-1-oxopropan-2-yl)amino)-2-(4-ethylphenyl)-1-oxobutan-2-yl)-7,7-dimethyl-5-phenyl-4,5,6,7-tetrahydropyrazolo[1,5-a]pyrimidine-3-carboxamide]	102%
CCc1ccc(C(CC)(NC(=O)c2cnn3c2N[C@@H](c2ccccc2)CC3(C)C)C(=O)N[C@@H](Cc2ccccc2)C(N)=O)cc1 (stereo partly drawn) [Example 18]	101%
CCc1ccc(C(CC)(NC(=O)c2cnn3c2N[C@@H](c2ccccc2)CC3(C)C)C(=O)NCC(N)=O)cc1 (stereo partly drawn) [Example 17, (5R)-N-(1-((2-Amino-2-oxoethyl)amino)-2-(4-ethylphenyl)-1-oxobutan-2-yl)-7,7-dimethyl-5-phenyl-4,5,6,7-tetrahydropyrazolo[1,5-a]pyrimidine-3-carboxamide]	104%
CCc1ccc([C@](CC)(NC(=O)c2c(C)nn3c2N[C@@H](c2ccccc2)CC3(C)C)C(=O)N[C@@H](C)C(N)=O)cc1 [Example 3, (5R)-N-((2S)-1-(((2S)-1-Amino-1-oxopropan-2-yl)amino)-2-(4-ethylphenyl)-1-oxobutan-2-yl)-2,7,7-trimethyl-5-phenyl-4,5,6,7-tetrahydropyrazolo[1,5-a]pyrimidine-3-carboxamide]	94%
CCc1ccc([C@@](CC)(NC(=O)c2cnn3c2N[C@@H](c2ccccc2)CC3(C)C)C(=O)N[C@H](C(N)=O)[C@@H](C)O)cc1 [Example 21, (5R)-N-((2R)-1-(((2S,3R)-1-Amino-3-hydroxy-1-oxobutan-2-yl)amino)-2-(4-ethylphenyl)-1-oxobutan-2-yl)-7,7-dimethyl-5-phenyl-4,5,6,7-tetrahydropyrazolo[1,5-a]pyrimidine-3-carboxamide]	103%
CCc1ccc(C(CC)(NC(=O)c2cnn3c2N[C@@H](c2ccccc2)CC3(C)C)C(=O)N[C@@H](CC(N)=O)C(N)=O)cc1 (stereo partly drawn) [Example 24]	102%
CCc1ccc(C(CC)(NC(=O)c2cnn3c2N[C@@H](c2ccccc2)CC3(C)C)C(=O)NC)cc1 (stereo partly drawn) [Example 29, (5R)-N-(2-(4-Ethylphenyl)-1-(methylamino)-1-oxobutan-2-yl)-7,7-dimethyl-5-phenyl-4,5,6,7-tetrahydropyrazolo[1,5-a]pyrimidine-3-carboxamide]	103%
CCc1ccc(C(CC)(NC(=O)c2cnn3c2N[C@@H](c2ccccc2)CC3(C)C)C(=O)N(C)C)cc1 (stereo partly drawn) [Example 32, (5R)-N-(1-(Dimethylamino)-2-(4-ethylphenyl)-1-oxobutan-2-yl)-7,7-dimethyl-5-phenyl-4,5,6,7-tetrahydropyrazolo[1,5-a]pyrimidine-3-carboxamide]	102%
CCc1ccc(C(CC)(NC(=O)c2cnn3c2N[C@@H](c2ccccc2)CC3(C)C)C(=O)N[C@@H](CCCCN)C(N)=O)cc1 (stereo partly drawn) [Example 20, (5R)-N-(1-(((2S)-1,6-Diamino-1-oxohexan-2-yl)amino)-2-(4-ethylphenyl)-1-oxobutan-2-yl)-7,7-dimethyl-5-phenyl-4,5,6,7-tetrahydropyrazolo[1,5-a]pyrimidine-3-carboxamide]	101%
CCc1ccc(C(CC)(NC(=O)c2cnn3c2N[C@@H](c2ccccc2)CC3(C)C)C(=O)N[C@H](C)C(N)=O)cc1 (stereo partly drawn) [Example 22, (5R)-N-(1-(((2R)-1-Amino-1-oxopropan-2-yl)amino)-2-(4-ethylphenyl)-1-oxobutan-2-yl)-7,7-dimethyl-5-phenyl-4,5,6,7-tetrahydropyrazolo[1,5-a]pyrimidine-3-carboxamide]	106%
CCc1ccc(C(CC)(NC(=O)c2cnn3c2N[C@@H](c2ccccc2)CC3(C)C)C(N)=O)cc1 (stereo partly drawn) [Example 26, (5R)-N-(1-Amino-2-(4-ethylphenyl)-1-oxobutan-2-yl)-7,7-dimethyl-5-phenyl-4,5,6,7-tetrahydropyrazolo[1,5-a]pyrimidine-3-carboxamide]	106%
CCc1ccc(C(CC)(NC(=O)c2cnn3c2N[C@@H](c2ccccc2)CC3(C)C)C(=O)N[C@H](C(N)=O)[C@@H](C)CC)cc1 (stereo partly drawn) [Example 10, (5R)-N-(1-(((2S,3S)-1-Amino-3-methyl-1-oxopentan-2-yl)amino)-2-(4-ethylphenyl)-1-oxobutan-2-yl)-7,7-dimethyl-5-phenyl-4,5,6,7-tetrahydropyrazolo[1,5-a]pyrimidine-3-carboxamide]	100%

Same assay, conditions: CaCl2 final 1.3 mM, 100% = reference antagonist at 10 μM

Structure (SMILES)	Inhibition rate (%) at 3.3 μM
CCc1ccc(C(CC)(NC(=O)c2cnn3c2N[C@@H](c2ccccc2)CC3(C)C)C(=O)N(C)C)cc1 (stereo partly drawn) [Example 33, (5R)-N-(1-(Dimethylamino)-2-(4-ethylphenyl)-1-oxobutan-2-yl)-7,7-dimethyl-5-phenyl-4,5,6,7-tetrahydropyrazolo[1,5-a]pyrimidine-3-carboxamide]	104%
CCc1ccc(C(CC)(NC(=O)c2cnn3c2N[C@@H](c2ccccc2)CC3(C)C)C(=O)N[C@@H](CC(C)C)C(N)=O)cc1 (stereo partly drawn) [Example 15, (5R)-N-(1-(((2S)-1-Amino-4-methyl-1-oxopentan-2-yl)amino)-2-(4-ethylphenyl)-1-oxobutan-2-yl)-7,7-dimethyl-5-phenyl-4,5,6,7-tetrahydropyrazolo[1,5-a]pyrimidine-3-carboxamide]	101%
CCc1ccc(C(CC)(NC(=O)c2cnn3c2N[C@@H](c2ccccc2)CC3(C)C)C(=O)N[C@@H](CC(C)C)C(N)=O)cc1 (stereo partly drawn) [Example 16, (5R)-N-(1-(((2S)-1-Amino-4-methyl-1-oxopentan-2-yl)amino)-2-(4-ethylphenyl)-1-oxobutan-2-yl)-7,7-dimethyl-5-phenyl-4,5,6,7-tetrahydropyrazolo[1,5-a]pyrimidine-3-carboxamide]	105%
